Assay results from patent US12066428B2, “Cell-substrate impedance monitoring of cancer cells” (Agilent Technologies, Inc., priority 2016, dated 2024).

Assays:
Assay type in all cases: cell-based, human
[1] = test system: A549 cells; experiment: A549 target cells incubated with inhibitors alone (RT-CES control); settings: A549 target cells without NK-92
Excerpt: Inhibition of NK-mediated cytolysis of target cells by agents which block the signaling pathways leading to cytotoxicity. The interaction of NK receptors at the cell membrane by target cells leads to the activation of signal transduction machinery which results in cytolysis of target cells (Vivier et al., 2004). One of the key signaling cascades which regulate the fusion of perforin and granzyme containing secretory granules at the NK/target cell synaptic junction is the phosphatidyl-inositol-3-kinase (PI3K), Rac and mitogen activated protein kinase 1 (Erk) pathway (Djeu et al., 2002; Vivier et al., 2004). In order to determine the specificity of the signaling pathways in regulating NK-mediated cytotoxicity, we therefore sought to utilize specific inhibitors of the PI3K and Erk pathways. NK-92 cells were incubated with both the PI3K inhibitor Wortmannin and the Erk pathway inhibitor PD98059 or DMSO as a control and then added to A549 target cells. […] We calculated percent inhibition of cytolysis for both inhibitors at different time points after NK addition. […] In summary, the experiments shown here clearly establish that the RT-CES system can be used to monitor NK-mediated cytotoxic activity against a variety of different cell lines.

[2] = test system: NK-92-mediated cytolysis of A549 cells; experiment: Inhibition of NK-92-mediated cytolysis by signaling pathway inhibitors (RT-CES); settings: NK-92 pre-incubated with inhibitor, E/T 16:1
Description: Cytolytic analysis. Target cells were seeded into the wells of either 16-well or 96-well E-plate in 100 μL of media. Cell growth was dynamically monitored using the RT-CES system for a period of 24-34 hours, depending on the experiment until they reached log growth phase and formed a monolayer. Effector cells at different concentrations were then directly added into individual wells containing the target cells. For background control, effector cells were added to a well without target cells. After addition of the effector cells, the E-plate was returned to the e-plate station and the measurements were automatically collected by the analyzer every 15 minutes for up to 20 hours.
Data analysis. The integrated software is able to display entire history of the experiment from seeding the cells to termination of cytolysis. […] The cell index here is determined by calculating, for each measurement frequency f, the relative-change (Relative change (f)=(Rcell (f)−Rbackground(f))/Rbackground(f)) in resistance (a component of impedance) of a well when target cells are present in the well (Rcell (f)) with respect to background resistance (Rbackground) of the well when no cell is present and only cell culture medium is in the well, and then finding the maximum relative-change in resistance for all frequencies measured (Cell Index=max {Relative change (f)} for all measurement frequencies). […]

[3] = test system: H460 cells; experiment: Time-dependent cell index of drug-treated cells (cell-substrate impedance)
Description: The device was positioned on a device station that was located in an incubator maintaining conditions of 37° C. and 5% CO2. The cells were cultured and treated at their exponential growth phase with different concentrations of paclitaxel. The dynamic response of the cells to different doses of paclitaxel was monitored by monitoring cell-substrate impedance in real time every 15 minutes for 50 hours after treatment using a cell-substrate impedance monitoring system. The cell-substrate impedance monitoring system calculated the cell index at each time point monitored and plotted the cell index as a function of time.
The device was positioned on a device station that was located in an incubator maintaining conditions of 37 degrees C. and 5% CO2.

[4] = test system: A549 cells; experiment: RT-CES dynamic monitoring of drug interaction with target cells; settings: A549, highest concentration; cells later recover and re-proliferate
Description: Drug Treatment and Cytotoxicity Assessment.
In order to observe the kinetics of drug interaction with target cells, A549 non-small lung cancer cells were seeded in ACEA 96× E-plate™ and continuously monitored until the cells reached the log growth phase at which point different concentrations of paclitaxel were added to the cells at the indicated final concentration. […] While it remains to be determined if this phenomenon is due to metabolism and inactivation of paclitaxel or due to the emergence of paclitaxel-resistant subpopulation, this experiment clearly exemplifies the tremendous advantage of real-time measurement which is offered by the RT-CES system and allows the user to the opportunity to observe and assess the entire history of drug interaction with the target cells which provides further information in addition to cell viability or cytotoxicity. The phenomenon observed in FIG. 20A would've been easily missed by traditional single-point assays such as MTT.
Yet another major advantage of using the RT-CES system to continually monitor the interaction of drugs with target cells is that the user can obtain insight into the mechanism of action of the drug of interest. […]

## COc1cccc(-c2cc(=O)c3ccccc3o2)c1N [PD98059]
[1]
  effect of inhibitor alone on A549 baseline: minimal effect on the baseline
[2]
  effect on NK-92-mediated cytolysis of A549 cells: dose-dependently inhibited

## CC(=O)O[C@H]1C(=O)[C@@]2(C)[C@H]([C@H](OC(=O)c3ccccc3)[C@]3(O)C[C@H](OC(=O)[C@H](O)[C@@H](NC(=O)c4ccccc4)c4ccccc4)C(C)=C1C3(C)C)[C@]1(OC(C)=O)CO[C@@H]1C[C@@H]2O [paclitaxel]
[3]; H460, 33 nanomolar
  time over which cell index exhibited a near-constant value: about 15 hours
[3]; H460, concentrations between 67 nanomolar and 500 nanomolar
  cell index response after compound addition: gradual decrease in cell index after compound addition
[4]
  effect on A549 cells (Cell Index trace): initially induces a cytotoxic effect
